Several values for one entry are separate records, joined by “and”; a condition that tells them apart may be missing. Equal values may be shown once.
Experiments:
[1] = test system: NF-kappa B; assay: NF-kappa B luciferase reporter assay in H292 cells; assay type: cell-based, human; conditions: 10 μm, TNF-alpha 20 ng/ml
Procedure: NF-kappa B luciferase reporter assay was performed by following procedure disclosed in the literature (Pulin Che et al., Assay Drug Dev. Technol., 2012, 10, 61-68).
In order to establish the stable cells for NF-kappa B luciferase reporter assay, NF-kappa B response element was cloned into vector (pGL4.32 vector, E849A, Promega) according to the manufacture's protocol and infected to the cell (H292 cells, CRL-1848, ATCC) using by Lipofectamine 2000 (11668-019, Invitrogen). The infected cell was selected using by hygromycin (400 μg/ml) for 2 weeks and the colonies were individually cloned and proliferated. […] The test sample was pre-treated in a pre-determined concentration and 20 ng/ml of TNF-alpha was treated therewith for 12 hours. The activity of luciferase enzyme was determined by E6110 kit (OneGlo Luciferase Assay kit, Promega) and DMSO was used as a vehicle control.
The stably expressed H292 cells, a […] human bronchial epithelium cell, with luciferase reporter vector pGL4.32 (luc2P/NF-KB-RE/Hygro, Promega Company) were established prior to following experiment. […] The activation degree of luciferase was determined by One-glow Luciferase Assay system (Promega Company). […] The luminescence was determined by Microplate Luminometer LB 96V (EG&G Berthold company) for 0.5 sec and the result was shown in Table 5 and FIG. 3.

[2] = test system: asthma-induced animal model (OVA); assay: Anti-asthma activity in OVA-sensitized/challenged mouse model; assay type: in vivo, BALB/c mice; conditions: OVA asthma mice
Procedure: In order to determine the anti-asthma activity of test sample in asthma-induced animal model, following test was performed by the method disclosed in the literature (Shin, I. S. et al., Food Chem. Toxicol., 2013, 62, 506-513)
Specific pathogen-free female BALB/c mice (about 20 g), aged 6 weeks, which were routinely screened serologically for relevant respiratory pathogens, were purchased from Samtako Co. (Seoul, Korea) and acclimated with the experimental environment under the condition controlling the temperature of 22±2° C., and relative humidity of 55±15%, at light/dark cycle for 1 week prior to experiment.
Briefly, mice were sensitized by intraperitoneal injection of 20 μg OVA (Ovalbumin; A5503, Sigma, St. Louis, Mo.), which was emulsified in 2 mg aluminum hydroxide (A8222, Sigma-Aldrich, MO. USA) in 200 μl of PBS buffer (pH 7.4), biweekly. The mice were challenged through the airways with OVA (1% in PBS) for 30 min using an ultrasonic nebulizer (NE-U12; Omron Corp., Tokyo, Japan) from the 21st day to 23rd day after the initial sensitization. 24 hrs after the antigen treatment, the airway hyperresponsiveness was determined and the mice were sacrificed 48 hrs after the last challenge. The mice were sacrificed with an overdose of pentobarbital (50 mg/kg, Entobal®, Hanil, Korea) 48 h after the last challenge, and a tracheotomy was performed. After 1.4 ml of physiological saline solution (PBS) was instilled into the lungs, bronchoalveolar lavage fluid (BALF) was obtained by aspiration three times via tracheal cannulation.
The groups were divided into several groups, i.e., (a) normal control group(NC): the groups treated or not-treated with OVA; (b) asthma-induced group(OVA): the groups treated with OVA to induce asthma; and (c) comparative group: the groups treated with positive control group (M30, montelukast; 30 mg/kg, PO, Sigma-Aldrich Co. Ltd., SML-0101+OVA) and (d) test sample group: the groups treated with KS534 compound (30 mg/kg, PO, Sigma-Aldrich Co. Ltd., SML-0101+OVA).
The test group consists of 7 mice for each group and various concentrations of the test sample were orally administrated to the mice from 21st to 23rd day after ^1st OVA treatment.
All the result obtained from various experiments was recorded as mean±SD (standard deviation), and the comparison between each group was determined using by one-way ANOVA test using by SPSS 10.0 program. The statistic significance between each group was determined according to Dunnett's multiple comparison tests as a post-hoc test). The result was expressed as P values: <0.05 (*) as statistically significant. […]
BALF was loaded onto a slide and centrifuged to fix the cells onto the slide using a Cellspin machine (Cyto12.5+clip5, Hanil Science Industrial, Korea). The cells were stained by Diff-Quick® Stain reagents (Sysmex, Cat No. 38721, Switzerland) according to the manufacturer's instructions and the number of inflammatory cells in each sample was counted by microscope (×400).
In order to confirm the inhibition effect of test samples on the level of Th2 cytokines (IL-4, IL-5 and IL-13) in bronchoalveolar lavage fluid (BALF), the level of Th2 cytokines (IL-4, IL-5 and IL-13) in bronchoalveolar lavage fluid (BALF) was determined using by ELISA kit (VersaMax, Molecular Devices, USA) specifically reacting with each cytokine according to the manufacture's manual. […]

O=C(CO)O[C@@H]1O[C@@H]2C[C@H]3[C@H](OC(=O)c4ccc(O)c(O)c4)[C@@H](Cl)[C@@](O)(CO2)[C@@H]13 [KS-534, (3R,5S,5aS,6R,7S,8R,8aS)-8-chloro-8a-hydroxy-5-(2-hydroxyacetoxy) hexahydro-1H-3,6-methanocyclopenta[e][1,3]dioxepin-7-yl3,4-dihydroxybenzoate]
Inhibitory ratio (%) of NF-kappa B activity [1]: 36.65%
NF-kappa B activity (relative % comparing with TNF-alpha treatment group) [1]: 63.35% and 63.35 ± 6.18%
level of Th2 cytokines (IL-4, IL-5 and IL-13) in BALF ([2]; 30 mg/kg PO, ELISA, vs OVA group (FIG. 6)): significantly reduced
level of IgE and OVA-specific IgE in blood serum ([2]; 30 mg/kg PO, ELISA, vs OVA group (FIG. 7)): significantly reduced
invasion of the inflamed cells in lung tissue (H&E histology) ([2]; 30 mg/kg PO, vs OVA group (FIG. 8)): significantly reduced
mucosal secretion from the goblet cell of bronchial epithelial cells in lung tissue (PAS) ([2]; 30 mg/kg PO, vs OVA group (FIG. 9)): significantly reduced
total number of eosinophil and inflammatory cells in BALF ([2]; oral, vs OVA group (FIG. 5)): effectively inhibited
